Assay results: patent US20220125760A1, “USE OF USP7 INHIBITORS FOR THE TREATMENT OF ACUTE MYELOID LEUKEMIA (AML)” (INSERM (Institut National de la Santé et de la Recherche …, priority 2019, published 2022)

Key:
[1] = system: Peripheral Blood Mononuclear Cells (PBMC); test: Cell viability of PBMC, annexinV/cell viability staining by flow cytometry; conditions: normal PBMC (n=3), 10 μM P22077 for 24 h
[2] = system: CHK1 protein levels in HEL cells; test: CHK1 and p53 protein levels in HEL cells; format: cell-based, Human; conditions: data not shown
Source text: (§1) We then investigated whether USP7 could regulate CHK1 levels in leukemic cells. […] We then used P22077, an inhibitor of USP7 catalytic activity^34,35, to further monitor the impact of USP7 inhibition on CHK1 levels. […] We then asked whether p53 status could affect this response and reproduced these experiments on two AML cell lines, OCI-AML3 and HEL, which express wild-type p53 and high CHK1 protein levels (FIG. 1A and data not shown). […] Using an immunofluorescence approach, we also validated that approximately 50% of CHK1 protein signal disappears after 24 hours of USP7 inhibition (data not shown).

HL-60 cells = test: Cell death of HL-60 cells, combination with cytarabine, annexinV flow cytometry; format: cell-based, Human; conditions: HL60 cells, 24 h
Method: (§2) B: HL-60 cells were treated as indicated for 24 h. […] Statistical analysis was performed by unpaired t-test (n=4). *P≤0.05 and **P≤0.01. […] Colony formation was assessed after 7 days and represented as the ratio of the number of clones between untreated and treated conditions. For statistical analyses, unpaired Wilcoxon test was used. *P≤0.05, and ns=not significant.
(§3) To explore the possibility that USP7 by modulating CHK1 stability USP7 participates in the chemoresistance of leukemic cells, we examined the capacity of USP7 inhibition to sensitize HL60 and OCI-AML3 cells to cytarabine treatment. […] We then quantified the capacity of primary AML cells to form colonies in methylcellulose-based semi-solid medium, when exposed to clinical relevant concentrations (10 nM) of cytarabine combined with the P22077 inhibitor (FIG. 5D-5E).

CHK1 protein signal = test: Immunofluorescence of CHK1 protein signal; format: cell-based; conditions: after 24 hours of USP7 inhibition, data not shown
Source text: as §1
We then investigated whether USP7 can regulate CHK1 protein level or its subcellular localization in leukemic cells. […] Using immunofluorescence, we also validated that approximately 50% of the CHK1 protein signal disappears after 24 hours of USP7 inhibition, without any changes in CHK1 subcellular localization (data not shown).

OCI-AML3 cells = test: Cell death of OCI-AML3 cells, combination with cytarabine, annexinV flow cytometry; format: cell-based, Human; conditions: P22077 10 μM + AraC 1 μM, 24 h
Method: as §2, §3

[3] = system: CHK1 protein levels in HL-60 cells; test: CHK1 protein level by western blot in HL-60 cells; format: cell-based, Human; conditions: HL-60 cells (p53 null), P22077 at 10, visible from 8 h to 24 h of treatment
Method: (§4) FIG. 2: USP7 inhibition decreases CHK1 protein level. […] Actin was used as loading control. Normalization was performed using CTL siRNA condition as reference. […] B: HL-60 cells were treated with USP7 inhibitor (P22077) at 10 and harvested at the indicated times, followed by western blotting for CHK1. […] The amount of CHK1 at t=0 h was set to 1. […] C: OCI-AML3 cells were treated with USP7 inhibitor (P22077) at 10 μM and harvested at the indicated times, followed by western blotting for CHK1 protein. Graph represent the quantification of CHK1 protein levels normalized to actin loading control from 3 independent experiments. Statistical analyses were performed as in B.
as §1

[4] = system: CHK1 protein level in OCI-AML3 cell line; test: CHK1 protein level by western blot in OCI-AML3 cells; format: cell-based, Human; conditions: OCI-AML3 cells (wild-type p53), P22077 10 μM
Method: as §4
We then investigated whether USP7 could regulate CHK1 levels in leukemic cells. […] . We then asked whether p53 status could affect this response and reproduced these experiments on two AML cell lines, OCI-AML3 and HEL, which express wild-type p53 and high CHK1 protein levels (FIG. 1A and data not shown). […] . Using an immunofluorescence approach, we also validated that approximately 50% of CHK1 protein signal disappears after 24 hours of USP7 inhibition (data not shown).

AML primary samples = test: Cell viability of AML primary samples, annexinV/cell viability staining by flow cytometry; conditions: three primary AML samples, 10 μM P22077 for 24 h
[5] = system: CHK1 ubiquitination in HL60 cells; test: CHK1 immunoprecipitation and ubiquitin immunoblot in HL60 cells with MG132; format: cell-based, Human; conditions: in presence of proteasome inhibitor MG132, vs control condition
Method: To confirm that USP7 can regulates CHK1 protein level, endogenous CHK1 was immunoprecipitated from HL60 cells treated or not with P22077, in presence of the proteasome inhibitor MG132 to stabilize ubiquitinated forms of the protein. Immunoblotting of these fractions was performed and probed with an antibody against ubiquitin.

[6] = system: OCI-AML3 cells engrafted in NSG mice; test: OCI-AML3 xenograft in NSG mice, overall survival; conditions: NSG mice engrafted with OCI-AML3, 30 mg/kg/day IP for 5 days, vs vehicle, p=0.0001
Method: For statistical analysis, Mantel-Cox test was used. ***P≤0.001.
NOD/LtSz-SCID/IL-2Ry chain null (NSG) mice were bred at the UMS006 in Toulouse (France) using breeders obtained from Charles River. […] NSG mice were treated by i.p. injection of busulfan (20 mg/kg) on the day before the experiment. Mice were engrafted by injection of 2.10^6 OCI-AML3 cells into the tail vein. […] Mice were treated by daily intraperitoneal (IP) injection with AraC, P22077 or vehicle for 5 days. Overall mouse survival was established under these conditions.
OCI-AML3 resistant cells were injected into the tail vein of immunodeficient NSG mice to establish AML disease.

primary AML cells = test: Colony formation of primary AML blast cells in methylcellulose-based semi-solid medium; format: cell-based, Human; conditions: for colony formation, effect on cytarabine sensitivity: 10 nM cytarabine + 5 μM P22077, 7 days
Method: as §2, §3

[7] = system: CHK1 half-life in HL60 cells; test: CHK1 half-life with cycloheximide in HL60 cells; format: cell-based, Human
Method: To complete, experiments were performed to test whether the half-life of CHK1 is regulated by USP7 in leukemic cells. To this end, HL60 cells were treated with P22077 and the half-life of CHK1 was measured in the presence of 50 μg/mL cycloheximide (CHX) to inhibit protein biogenesis.

CHK1 and USP7 = target: T1, CHK1 and USP7 (Homo sapiens, UniProt Q93009); test: Proximity Ligation Assay (PLA) of CHK1 and USP7 in HL-60 cells; format: cell-based; conditions: HL60 cells, drug treatment, untreated (NT) 1.07+/−0.07
T1 construct: endogenous in cells; host or cells: HL-60 cells
T1 sequence (Q93009 whole entry): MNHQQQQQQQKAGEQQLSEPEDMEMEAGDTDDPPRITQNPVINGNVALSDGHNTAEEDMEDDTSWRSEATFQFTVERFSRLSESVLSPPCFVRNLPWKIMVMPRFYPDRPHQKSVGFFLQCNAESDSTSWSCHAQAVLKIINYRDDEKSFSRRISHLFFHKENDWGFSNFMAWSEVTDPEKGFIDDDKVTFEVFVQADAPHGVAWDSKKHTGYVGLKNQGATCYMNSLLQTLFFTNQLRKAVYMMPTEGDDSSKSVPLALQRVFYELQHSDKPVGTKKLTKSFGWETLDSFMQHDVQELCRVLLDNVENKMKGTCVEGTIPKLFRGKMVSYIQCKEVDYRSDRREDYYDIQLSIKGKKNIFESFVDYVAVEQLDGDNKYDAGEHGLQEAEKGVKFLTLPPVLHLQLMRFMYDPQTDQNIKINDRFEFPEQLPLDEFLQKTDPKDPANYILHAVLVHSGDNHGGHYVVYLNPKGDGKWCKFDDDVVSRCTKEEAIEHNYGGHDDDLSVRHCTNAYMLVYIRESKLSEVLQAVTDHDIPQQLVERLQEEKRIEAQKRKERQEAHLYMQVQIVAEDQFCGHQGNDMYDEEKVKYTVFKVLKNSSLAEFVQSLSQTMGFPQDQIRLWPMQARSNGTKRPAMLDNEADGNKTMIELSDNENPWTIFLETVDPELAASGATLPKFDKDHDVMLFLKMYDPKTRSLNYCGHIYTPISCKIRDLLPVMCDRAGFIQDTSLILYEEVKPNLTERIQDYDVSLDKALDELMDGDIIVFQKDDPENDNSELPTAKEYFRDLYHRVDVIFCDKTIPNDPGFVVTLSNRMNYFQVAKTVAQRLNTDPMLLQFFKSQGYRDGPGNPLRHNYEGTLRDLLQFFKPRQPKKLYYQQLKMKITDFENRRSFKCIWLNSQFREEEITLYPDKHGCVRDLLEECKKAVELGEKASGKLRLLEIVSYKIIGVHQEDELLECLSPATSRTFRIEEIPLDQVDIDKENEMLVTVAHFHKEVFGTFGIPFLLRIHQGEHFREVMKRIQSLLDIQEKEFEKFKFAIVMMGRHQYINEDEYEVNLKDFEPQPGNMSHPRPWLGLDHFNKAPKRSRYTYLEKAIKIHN
Method: as §2

Row | SMILES | cell viability [1] | CHK1 protein levels ([2]; HEL cells (wild-type p53)) | p53 protein levels ([2]; HEL cells) | cell death in combination with cytarabine (HL-60 cells) | CHK1 protein signal that disappears (immunofluorescence) (CHK1 protein signal) | cell death in combination with cytarabine (OCI-AML3 cells) | CHK1 protein levels [3] | CHK1 protein level [4] | cell viability (AML primary samples) | CHK1 ubiquitination [5] | overall mouse survival [6] | colony formation, effect on cytarabine sensitivity (primary AML cells; high CHK1 primary AML cells (n=6)) | colony formation, effect on cytarabine sensitivity (primary AML cells; low CHK1 primary AML cells (n=3)) | half-life of CHK1 protein ([7]; 50 μg/mL cycloheximide, after 6 hours of P22077 treatment) | CHEK1 mRNA expression ([7]; P22077 treatment, data not shown) | PLA foci per cell, co-staining of CHK1 and USP7 (mean +/- s.e.m.) (CHK1 and USP7) | PLA foci per cell, co-staining of CHK1 and USP7 (mean +/- s.e.m.) (CHK1 and USP7; listed as AraC) | colony formation, resistance of high CHK1 cells compared to low CHK1 cells (primary AML cells; 10 nM cytarabine alone, 7 days)
1 | CC(=O)c1cc([N+](=O)[O-])c(Sc2ccc(F)cc2F)s1 [P22077, 1-[5-[(2,4-Difluorophenyl)thio]-4-nitro-2-thienyl]-ethanone] | largely unaffected | similarly decreased CHK1 protein levels | without significant impact on p53 protein levels | synergistically enhances cell death induced by cytarabine | approximately 50% | synergistically enhances cell death induced by cytarabine | significant decrease of CHK1 protein levels | reduced CHK1 protein level | significantly reduced cell viability | more abundantly ubiquitinated | significantly improved overall mouse survival | potentiated the effects of cytarabine | did not modify the sensitivity to cytarabine | significantly shortened the half-life of CHK1 protein | without affecting CHEK1 mRNA expression | – | – | –
2 | Nc1ccn([C@@H]2O[C@H](CO)[C@@H](O)[C@@H]2O)c(=O)n1 [cytarabine] | – | – | – | – | – | – | – | – | – | – | – | – | – | – | – | significant proximity between the two proteins | 3.31+/−0.21 foci/cell | significantly more resistant to cytarabine
